From publication PMC12693167, “Design, Synthesis and Anticancer Activity of 6-Substituted-1-(3,4,5-trimethoxyphenyl)-1H-indole Against Tubulin Polymerisation” (Molecules, 2025)
Where “and” joins values, the source holds several entries; their conditions need not be identical. Equal values may be shown once. Entries after “also recorded” stand apart in the source; their conditions may differ.

Legend:
[1] = system: B16F10 melanoma tumors in BALB/c mice; experiment: In vivo antitumor efficacy, subcutaneous B16-F10 melanoma model; design: species or system mouse; details: 14 days, from tumor weight
Description: The in vivo antitumor activity of compound 3g was evaluated using a mouse melanoma tumor model in BALB/c mice. Tumors were established by subcutaneous inoculation of B16F10 cells, and treatment was initiated when tumors reached a measurable size. Mice were administered vehicle control, paclitaxel (PTX, 10 mg/kg), or compound 3g (20 and 50 mg/kg) via intraperitoneal injection once daily for 14 consecutive days.
(§1) All animal procedures were approved by the Animal Ethics Committee of the Naval Medical University (permit number: EC11-055). Male BALB/c mice (6–8 weeks old, average initial body weight approximately 18–20 g) were purchased from Shanghai SLAC Laboratory Animal Co., Ltd. The inhibitory effect of compound 3g was evaluated using a subcutaneous B16-F10 melanoma xenograft model. Log-phase B16F10 cells were suspended in PBS and subcutaneously injected into mice (200 μL containing 8 × 10^5 cells per mouse) to establish tumors. Mice were randomly divided into control and treatment groups (n = 8). Compound 3g and paclitaxel were dissolved in a vehicle consisting of DMSO:PEG:Tween-80:saline (v/v/v/v, 5:35:10:50) to the desired concentrations. Treatments (paclitaxel, 10 mg/kg; compound 3g, 20 and 50 mg/kg, doses calculated on a body-weight basis) and vehicle were administered once daily via intraperitoneal injection for 14 consecutive days. Body weights were monitored throughout the study to assess acute toxicity. Tumor volumes were measured using calipers and calculated with the formula: a × b^2 × 0.5, where a and b represent the larger and smaller tumor diameters, respectively. On day 14, mice were sacrificed and tumors were excised and weighed. […] Major organs (liver and kidneys) were collected, fixed in 4% paraformaldehyde, processed into paraffin sections, stained with hematoxylin and eosin (H&E), and examined microscopically.
Murine melanoma B16-F10 xenograft tumors were established in mice, which were then administered vehicle, PTX (10 mg/kg per day), compound 3g (20 mg/kg per day), and compound 3g (50 mg/kg per day) for 14 days. […]

[2] = In vivo tolerability (body weight, H&E histopathology of liver and kidney); design: species or system mouse
Description: as §1
Figure 8 Compound 3g inhibits melanoma tumor growth in vivo. Murine melanoma B16-F10 xenograft tumors were established in mice, which were then administered vehicle, PTX (10 mg/kg per day), compound 3g (20 mg/kg per day), and compound 3g (50 mg/kg per day) for 14 days. The mice were sacrificed, and the tumors were weighed. (A) Images of tumors from mice at 14 days after initiation of treatment. (B) Body weight changes in mice during treatment. (C) Weight of the excised tumors of each group. * p < 0.05, and *** p < 0.001 vs. control group. (D) Tumor volume changes in mice during treatment. […]

MCF-7 cells = experiment: Annexin V-FITC/PI apoptosis assay; format: cell-based, human; details: 48 h
Description: Given that mitotic arrest induced by tubulin polymerization inhibitors is commonly associated with apoptosis, an Annexin V-FITC/propidium iodide (PI) assay was conducted to evaluate the pro-apoptotic effect of compound 3g in MCF-7 cells.
MCF-7 cells were seeded into 6-well plates and cultured overnight. After treating with compound 3g (0.1, 1, and 10 μM) for 48 h, cells were harvested and suspended in binding buffer containing annexin V-FITC (0.5 mg/mL) and PI (0.5 mg/mL). After that, samples were incubated for 20 min in the dark and analyzed with a flow cytometer.
Figure 7 Effects of compound 3g on apoptosis in MCF-7 cells. (A) Apoptosis induction by compound 3g in MCF-7 cells. Cells were treated with increasing concentrations of 3g (0.1, 1, and 10 μM) for 48 h, followed by Annexin V-FITC/PI staining and flow cytometric analysis. Cell populations were categorized as necrotic (upper left quadrant), late apoptotic (upper right), viable (lower left), and early apoptotic (lower right). (B) Quantification of apoptotic populations. Bar graphs show the percentage of cells in each apoptotic stage after treatment. Data are presented as mean ± SD from three independent experiments. Statistical significance was determined by one-way ANOVA followed by Tukey’s post hoc test. TEXT PRINTED IN THE PICTURE: (A) Control: Q1(20.37%); Q2(15.42%); Q4(59.96%); Q3(4.25%) | (A) no label printed: Q1(8.46%) (0.1 μM); Q2(23.10%) (0.1 μM); Q4(59.68%) (0.1 μM); Q3(8.75%) (0.1 μM); Q1(8.98%) (1 μM); Q2(29.15%) (1 μM); Q4(50.67%) (1 μM); Q3(11.19%) (1 μM); Q1-UL(12.21%) (10 μM); Q1-UR(40.63%) (10 μM); Q1-LL(34.55%) (10 μM); Q1-LR(12.61%) (10 μM) DOUBTS OF THE COPYIST ABOUT THIS PICTURE: The picture prints no label for the treated substance; only the concentrations 0.1 μM, 1 μM and 10 μM are printed over the plots, so they are given as conditions. / Control is untreated cells rather than a substance; it is listed because quadrant percentages are printed with that name. / The quadrant print is very small, so 3, 5, 6, 8 and 9 cannot be told apart with certainty in any of these values. / Control: Q1 20.37%, Q2 15.42%, Q4 59.96%, Q3 4.25% are best readings. / 0.1 μM: Q1 8.46%, Q2 23.10%, Q4 59.68%, Q3 8.75% are best readings. / 1 μM: Q1 8.98%, Q2 29.15%, Q4 50.67%, Q3 11.19% are best readings. / 10 μM: Q1-UL 12.21%, Q1-UR 40.63%, Q1-LL 34.55%, Q1-LR 12.61% are best readings.

[3] = 20 and 50 mg/kg i.p. daily, 14 days

SMILES: COc1cc(-n2ccc3ccc(-c4ccc(C)c(C#N)c4)cc32)cc(OC)c1OC [3g, 2-methyl-5-(1-(3,4,5-trimethoxyphenyl)-1H-indol-6-yl)benzonitrile]
- tumor growth inhibition (TGI) ([1]; 20 mg/kg i.p. once daily): 23.3% and 23.34%
- tumor growth inhibition (TGI) ([1]; 50 mg/kg i.p. once daily): 44.2% and 44.18%
- systemic toxicity ([2]; 20 mg/kg and 50 mg/kg): without evident systemic toxicity
- body weight change [2, 3]: did not induce significant body weight loss
- histopathology of liver and kidneys (H&E) [2, 3]: no overt toxicity; also recorded: did not reveal obvious morphological abnormalities
- apoptosis induction (MCF-7 cells; 10 μM): significantly inducing apoptosis
- apoptotic cell populations (MCF-7 cells; 0.1, 1 and 10 μM): dose-dependent increase
- viability at 0.1 µM (MCF-7 cells; Homo sapiens, MCF7, 0.1 μM, read-out: viable cells (lower left quadrant, Q4)): 59.7%
- viability at 1 µM (MCF-7 cells; Homo sapiens, MCF7, 1 μM, read-out: viable cells (lower left quadrant, Q4)): 50.7%
- viability at 10 µM (MCF-7 cells; Homo sapiens, MCF7, 10 μM, read-out: viable cells (lower left quadrant, Q1-LL)): 34.5%
